What all share (assay): biochemical
What all share (parameters): Eurofins recombinant human kinase profiling, remaining kinase activity as % of control, 10 uM ATP
What all share (conditions): ATP 10 uM; read-out: %Ctrl@10 μM

One assay has as its target T1, Abl(Y253F)(h) (Homo sapiens, UniProt P00519, Y253F).
T1 construct: gene ABL1
The method, boiled down:
(§1)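 Activity measured in a commercial panel of 401 recombinant human protein kinases run as a kinase profiling service.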

Another assay concerns the target CDK3/cyclinE(h) (Homo sapiens, UniProt Q00526). The method, boiled down: as §1
The next assay deals with CDK4/cyclinD3(h) (Homo sapiens, UniProt P11802). The method, boiled down: as §1
A further assay concerns the target T2, CHK2(R145W)(h) (Homo sapiens, UniProt O96017, R145W).
T2 construct: gene CHEK2
The method, boiled down: as §1

A further assay has as its target T3, CK2α1(h) (Homo sapiens, UniProt P68400).
T3 construct: gene CSNK2A1
The method, boiled down: as §1

The target of another assay is T4, CaMKIß(h) (Homo sapiens, UniProt Q6P2M8).
T4 construct: gene PNCK
The method, boiled down: as §1

Another assay addresses DDR1(h) (Homo sapiens, UniProt Q08345). The essentials:
as §1

The next assay deals with T5, HPK1(h) (Homo sapiens, UniProt Q92918).
T5 construct: gene MAP4K1
The essentials: as §1

In a further assay the target is T6, IRR(h) (Homo sapiens, UniProt P14616).
T6 construct: gene INSRR
T6 sequence (P14616 whole entry): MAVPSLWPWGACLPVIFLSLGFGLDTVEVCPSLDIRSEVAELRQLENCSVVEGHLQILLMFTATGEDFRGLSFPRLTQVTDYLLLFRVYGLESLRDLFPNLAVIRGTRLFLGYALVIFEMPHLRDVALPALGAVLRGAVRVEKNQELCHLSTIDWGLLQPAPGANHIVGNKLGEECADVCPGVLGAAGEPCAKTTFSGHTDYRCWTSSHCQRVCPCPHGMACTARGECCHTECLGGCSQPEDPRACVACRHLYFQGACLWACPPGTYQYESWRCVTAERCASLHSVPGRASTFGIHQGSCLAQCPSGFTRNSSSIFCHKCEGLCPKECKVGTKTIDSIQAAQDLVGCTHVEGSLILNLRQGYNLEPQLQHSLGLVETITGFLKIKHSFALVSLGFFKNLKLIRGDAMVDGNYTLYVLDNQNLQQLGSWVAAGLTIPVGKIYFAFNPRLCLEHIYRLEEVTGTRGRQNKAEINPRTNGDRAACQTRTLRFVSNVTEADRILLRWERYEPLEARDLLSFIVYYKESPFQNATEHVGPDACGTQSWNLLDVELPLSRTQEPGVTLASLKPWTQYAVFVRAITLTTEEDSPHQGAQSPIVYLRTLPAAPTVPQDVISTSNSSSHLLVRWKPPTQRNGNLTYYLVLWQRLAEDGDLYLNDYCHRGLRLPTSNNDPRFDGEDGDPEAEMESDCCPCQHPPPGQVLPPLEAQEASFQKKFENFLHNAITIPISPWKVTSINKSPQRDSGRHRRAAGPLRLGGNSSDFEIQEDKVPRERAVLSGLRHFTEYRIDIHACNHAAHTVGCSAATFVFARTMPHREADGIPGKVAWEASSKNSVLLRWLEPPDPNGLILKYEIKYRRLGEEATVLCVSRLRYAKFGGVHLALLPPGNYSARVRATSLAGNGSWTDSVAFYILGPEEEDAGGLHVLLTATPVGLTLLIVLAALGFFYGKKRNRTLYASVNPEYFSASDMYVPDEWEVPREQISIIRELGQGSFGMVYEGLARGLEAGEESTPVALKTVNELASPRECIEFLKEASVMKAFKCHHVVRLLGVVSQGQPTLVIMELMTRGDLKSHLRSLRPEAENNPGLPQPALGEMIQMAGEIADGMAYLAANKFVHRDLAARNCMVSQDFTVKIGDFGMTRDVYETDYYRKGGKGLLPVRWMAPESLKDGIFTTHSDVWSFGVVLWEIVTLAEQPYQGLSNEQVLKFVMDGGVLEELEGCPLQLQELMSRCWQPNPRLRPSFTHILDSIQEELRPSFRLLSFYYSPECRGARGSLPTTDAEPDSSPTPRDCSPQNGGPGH
The method, boiled down:
as §1

In another assay the target is KDR(h) (Homo sapiens, UniProt P35968). The method, boiled down: as §1
A further assay has as its target T7, MEKK2(h) (Homo sapiens, UniProt Q9Y2U5).
T7 construct: gene MAP3K2
The method, boiled down:
as §1

Another assay deals with T8, MRCKγ(h) (Homo sapiens, UniProt Q6DT37).
T8 construct: gene CDC42BPG
The method, boiled down:
as §1

For the next assay, the target named is T9, MST4(h) (Homo sapiens, UniProt Q9P289).
T9 construct: gene STK26
T9 sequence (Q9P289 whole entry): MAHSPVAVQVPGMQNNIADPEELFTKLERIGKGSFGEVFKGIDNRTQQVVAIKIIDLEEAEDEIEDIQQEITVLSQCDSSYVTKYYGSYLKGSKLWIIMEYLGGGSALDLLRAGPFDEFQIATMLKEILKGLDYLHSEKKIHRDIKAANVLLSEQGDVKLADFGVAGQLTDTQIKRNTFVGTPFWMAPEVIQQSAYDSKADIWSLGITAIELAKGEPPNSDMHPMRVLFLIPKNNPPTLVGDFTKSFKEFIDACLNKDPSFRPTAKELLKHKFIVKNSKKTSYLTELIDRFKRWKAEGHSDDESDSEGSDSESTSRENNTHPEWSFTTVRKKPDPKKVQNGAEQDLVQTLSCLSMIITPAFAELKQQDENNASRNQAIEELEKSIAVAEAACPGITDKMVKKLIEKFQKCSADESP
The essentials:
as §1

The next assay addresses MuSK(h) (Homo sapiens, UniProt O15146). The method, boiled down: as §1
A further assay addresses NUAK2(h) (Homo sapiens, UniProt Q9H093). The method, boiled down: as §1
The next assay concerns the target T10, PDGFRα(h) (Homo sapiens, UniProt P16234).
T10 construct: gene PDGFRA
The essentials:
as §1

For another assay, the target named is T11, PEK(h) (Homo sapiens, UniProt Q9NZJ5).
T11 construct: gene EIF2AK3
T11 sequence (Q9NZJ5 whole entry): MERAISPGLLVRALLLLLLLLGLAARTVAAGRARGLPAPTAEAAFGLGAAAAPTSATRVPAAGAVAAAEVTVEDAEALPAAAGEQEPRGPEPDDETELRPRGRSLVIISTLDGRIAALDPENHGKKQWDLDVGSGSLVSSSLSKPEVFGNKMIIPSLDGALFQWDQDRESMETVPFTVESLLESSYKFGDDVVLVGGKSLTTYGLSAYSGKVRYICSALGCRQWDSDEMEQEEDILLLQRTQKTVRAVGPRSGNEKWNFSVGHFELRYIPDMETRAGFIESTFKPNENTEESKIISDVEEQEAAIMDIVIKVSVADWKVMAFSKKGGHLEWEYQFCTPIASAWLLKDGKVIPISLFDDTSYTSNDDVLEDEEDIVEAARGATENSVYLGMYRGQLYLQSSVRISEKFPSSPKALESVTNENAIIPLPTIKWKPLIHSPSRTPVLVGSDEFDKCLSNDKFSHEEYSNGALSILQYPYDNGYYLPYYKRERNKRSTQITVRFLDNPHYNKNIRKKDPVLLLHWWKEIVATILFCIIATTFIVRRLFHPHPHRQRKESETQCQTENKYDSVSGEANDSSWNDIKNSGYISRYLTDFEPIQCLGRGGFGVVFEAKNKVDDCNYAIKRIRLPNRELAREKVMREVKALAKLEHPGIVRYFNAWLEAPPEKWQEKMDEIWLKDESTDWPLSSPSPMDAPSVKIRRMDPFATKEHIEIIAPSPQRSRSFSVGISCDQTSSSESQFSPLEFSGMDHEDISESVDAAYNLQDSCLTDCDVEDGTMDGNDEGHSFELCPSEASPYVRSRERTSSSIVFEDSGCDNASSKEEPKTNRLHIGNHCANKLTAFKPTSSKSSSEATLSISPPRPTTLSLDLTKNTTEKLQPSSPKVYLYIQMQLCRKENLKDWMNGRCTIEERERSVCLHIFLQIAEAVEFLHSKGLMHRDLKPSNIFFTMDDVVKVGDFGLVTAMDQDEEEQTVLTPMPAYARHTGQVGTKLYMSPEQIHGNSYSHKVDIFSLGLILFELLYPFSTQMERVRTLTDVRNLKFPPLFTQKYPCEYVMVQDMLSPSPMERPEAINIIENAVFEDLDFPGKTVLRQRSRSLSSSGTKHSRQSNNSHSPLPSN
The method, boiled down: as §1

The target in the next assay is T12, Pim-3(h) (Homo sapiens, UniProt Q86V86).
T12 construct: gene PIM3
The essentials: as §1

The target in the next assay is T13, Ron(h) (Homo sapiens, UniProt Q04912).
T13 construct: gene MST1R
The essentials:
as §1

In a further assay the target is SIK2(h) (Homo sapiens, UniProt Q9H0K1). The essentials: as §1
The next assay deals with T14, TSSK1(h) (Homo sapiens, UniProt Q9BXA7).
T14 construct: gene TSSK1B
T14 sequence (Q9BXA7 whole entry): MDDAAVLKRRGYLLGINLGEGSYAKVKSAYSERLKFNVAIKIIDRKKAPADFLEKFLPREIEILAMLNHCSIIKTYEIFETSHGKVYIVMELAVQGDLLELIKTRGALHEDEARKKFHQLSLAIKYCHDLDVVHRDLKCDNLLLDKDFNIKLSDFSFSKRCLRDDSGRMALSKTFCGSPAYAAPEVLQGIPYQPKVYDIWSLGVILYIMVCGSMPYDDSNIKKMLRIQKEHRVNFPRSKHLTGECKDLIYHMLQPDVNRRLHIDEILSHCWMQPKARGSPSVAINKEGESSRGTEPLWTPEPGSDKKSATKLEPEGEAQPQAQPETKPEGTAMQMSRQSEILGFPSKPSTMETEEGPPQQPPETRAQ
The essentials:
as §1

The target of another assay is T15, cKit(D816H)(h) (Homo sapiens, UniProt P10721, D816H).
T15 construct: gene KIT
T15 sequence (P10721 whole entry D816H): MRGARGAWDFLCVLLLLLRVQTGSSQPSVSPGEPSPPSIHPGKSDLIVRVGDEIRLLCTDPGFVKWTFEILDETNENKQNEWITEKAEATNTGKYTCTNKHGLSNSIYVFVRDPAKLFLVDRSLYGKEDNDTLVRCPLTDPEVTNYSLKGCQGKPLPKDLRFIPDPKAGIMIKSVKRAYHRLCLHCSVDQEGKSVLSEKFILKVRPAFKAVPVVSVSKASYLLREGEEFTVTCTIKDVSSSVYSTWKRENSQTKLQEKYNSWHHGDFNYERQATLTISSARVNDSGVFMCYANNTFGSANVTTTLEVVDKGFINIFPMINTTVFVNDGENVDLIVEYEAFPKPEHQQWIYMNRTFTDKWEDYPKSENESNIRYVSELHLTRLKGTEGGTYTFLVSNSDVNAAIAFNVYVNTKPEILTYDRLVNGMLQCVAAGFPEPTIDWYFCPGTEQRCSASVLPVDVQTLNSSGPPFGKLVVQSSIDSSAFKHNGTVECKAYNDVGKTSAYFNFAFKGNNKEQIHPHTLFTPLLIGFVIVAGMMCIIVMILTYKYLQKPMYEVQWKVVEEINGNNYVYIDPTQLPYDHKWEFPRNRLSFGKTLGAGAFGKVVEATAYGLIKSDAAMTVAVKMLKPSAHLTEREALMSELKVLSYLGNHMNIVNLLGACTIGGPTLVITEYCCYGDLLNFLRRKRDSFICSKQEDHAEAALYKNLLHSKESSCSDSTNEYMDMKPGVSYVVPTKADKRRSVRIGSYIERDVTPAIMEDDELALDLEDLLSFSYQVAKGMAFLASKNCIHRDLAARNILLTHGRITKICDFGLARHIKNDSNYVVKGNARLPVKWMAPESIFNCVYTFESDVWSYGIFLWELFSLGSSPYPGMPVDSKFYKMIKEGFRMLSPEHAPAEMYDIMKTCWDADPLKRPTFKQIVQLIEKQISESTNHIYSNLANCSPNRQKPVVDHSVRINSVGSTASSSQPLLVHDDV
The method, boiled down:
as §1

Chain of DDR1(h) (Q08345 whole entry): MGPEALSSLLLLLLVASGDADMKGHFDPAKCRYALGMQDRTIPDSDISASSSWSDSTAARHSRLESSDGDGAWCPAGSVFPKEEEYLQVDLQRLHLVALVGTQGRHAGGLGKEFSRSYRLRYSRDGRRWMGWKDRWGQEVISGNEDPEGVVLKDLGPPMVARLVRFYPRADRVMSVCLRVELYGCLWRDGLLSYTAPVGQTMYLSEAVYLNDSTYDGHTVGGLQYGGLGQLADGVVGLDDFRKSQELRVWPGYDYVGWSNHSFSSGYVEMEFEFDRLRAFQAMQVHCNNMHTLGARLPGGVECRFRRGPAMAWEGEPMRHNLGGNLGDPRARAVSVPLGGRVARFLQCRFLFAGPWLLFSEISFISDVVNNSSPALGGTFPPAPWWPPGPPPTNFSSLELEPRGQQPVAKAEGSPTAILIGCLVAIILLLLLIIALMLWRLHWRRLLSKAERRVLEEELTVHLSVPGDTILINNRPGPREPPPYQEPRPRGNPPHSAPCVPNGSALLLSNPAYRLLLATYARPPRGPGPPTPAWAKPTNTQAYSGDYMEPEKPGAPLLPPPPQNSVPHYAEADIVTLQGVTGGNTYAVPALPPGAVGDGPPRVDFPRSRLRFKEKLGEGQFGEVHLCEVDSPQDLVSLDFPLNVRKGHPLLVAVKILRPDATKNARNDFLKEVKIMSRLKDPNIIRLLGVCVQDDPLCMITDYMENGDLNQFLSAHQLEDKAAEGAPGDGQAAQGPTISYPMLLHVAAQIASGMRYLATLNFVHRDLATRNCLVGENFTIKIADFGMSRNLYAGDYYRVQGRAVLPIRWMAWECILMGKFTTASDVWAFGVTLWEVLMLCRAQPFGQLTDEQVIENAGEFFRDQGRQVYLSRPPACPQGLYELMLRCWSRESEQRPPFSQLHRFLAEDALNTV

Turning to `C1=C(c2nc(-c3cnn(C4CCNCC4)c3)cn3cc(-c4ccccc4)nc23)CCOC1` [YL-939], the remaining activity at 10 µM on Abl(Y253F)(h) came out at 123%; on CDK3/cyclinE(h), 102%; at CDK4/cyclinD3(h), 80%; on CHK2(R145W)(h) it was 98%; on CK2α1(h) it was 103%; at CaMKIß(h), 88%. The remaining activity at 10 µM at DDR1(h) was 98%; at HPK1(h), 88%; on IRR(h), 74%; at KDR(h), 108%; on MEKK2(h), 100%; at MRCKγ(h) it was 95%. Besides, the remaining activity at 10 µM on MST4(h) stood at 112%; on MuSK(h), 88%; at NUAK2(h) it was 72%; on PDGFRα(h), 76%; on PEK(h), 99%; at Pim-3(h), 103%. In addition, the remaining activity at 10 µM was 99% on Ron(h), 94% on SIK2(h), 80% at TSSK1(h) and 90% at cKit(D816H)(h).

The values are drawn from paper PMC9719519, “Non-classical ferroptosis inhibition by a small molecule targeting PHB2” (Nature Communications, 2022).
